The values below come from the supplement of paper PMC12076712.

SMILES strings stand for the structures. ± gives the standard deviation of the averaged measurements.

Some targets named below: PAK1 (UniProt Q13153); CAMKK2 (UniProt Q96RR4); UniProt Q8NEB9; PAK2 (UniProt Q13177); UniProt Q8NI60; UniProt Q16512; MAP4K5 (UniProt Q9Y4K4).
What all share (test): pIC50, kinobeads binding competition
Common to all, as to conditions: cell material: Jurkat lysate

For a further experiment, the target named is T1, PHKG2 (UniProt P15735).
T1 sequence (whole entry): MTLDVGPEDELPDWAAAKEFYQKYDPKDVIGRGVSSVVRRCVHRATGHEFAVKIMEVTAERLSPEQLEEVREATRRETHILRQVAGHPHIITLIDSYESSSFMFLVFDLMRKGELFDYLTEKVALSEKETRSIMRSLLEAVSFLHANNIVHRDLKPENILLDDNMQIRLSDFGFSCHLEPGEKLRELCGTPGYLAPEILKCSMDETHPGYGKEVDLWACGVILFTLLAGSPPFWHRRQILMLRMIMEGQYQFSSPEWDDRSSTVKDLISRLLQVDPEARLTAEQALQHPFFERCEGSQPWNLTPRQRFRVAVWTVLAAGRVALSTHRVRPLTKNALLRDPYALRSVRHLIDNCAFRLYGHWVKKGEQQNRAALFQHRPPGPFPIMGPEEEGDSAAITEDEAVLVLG

The target of another experiment is T2, LATS1 (UniProt O95835).
T2 sequence (whole entry): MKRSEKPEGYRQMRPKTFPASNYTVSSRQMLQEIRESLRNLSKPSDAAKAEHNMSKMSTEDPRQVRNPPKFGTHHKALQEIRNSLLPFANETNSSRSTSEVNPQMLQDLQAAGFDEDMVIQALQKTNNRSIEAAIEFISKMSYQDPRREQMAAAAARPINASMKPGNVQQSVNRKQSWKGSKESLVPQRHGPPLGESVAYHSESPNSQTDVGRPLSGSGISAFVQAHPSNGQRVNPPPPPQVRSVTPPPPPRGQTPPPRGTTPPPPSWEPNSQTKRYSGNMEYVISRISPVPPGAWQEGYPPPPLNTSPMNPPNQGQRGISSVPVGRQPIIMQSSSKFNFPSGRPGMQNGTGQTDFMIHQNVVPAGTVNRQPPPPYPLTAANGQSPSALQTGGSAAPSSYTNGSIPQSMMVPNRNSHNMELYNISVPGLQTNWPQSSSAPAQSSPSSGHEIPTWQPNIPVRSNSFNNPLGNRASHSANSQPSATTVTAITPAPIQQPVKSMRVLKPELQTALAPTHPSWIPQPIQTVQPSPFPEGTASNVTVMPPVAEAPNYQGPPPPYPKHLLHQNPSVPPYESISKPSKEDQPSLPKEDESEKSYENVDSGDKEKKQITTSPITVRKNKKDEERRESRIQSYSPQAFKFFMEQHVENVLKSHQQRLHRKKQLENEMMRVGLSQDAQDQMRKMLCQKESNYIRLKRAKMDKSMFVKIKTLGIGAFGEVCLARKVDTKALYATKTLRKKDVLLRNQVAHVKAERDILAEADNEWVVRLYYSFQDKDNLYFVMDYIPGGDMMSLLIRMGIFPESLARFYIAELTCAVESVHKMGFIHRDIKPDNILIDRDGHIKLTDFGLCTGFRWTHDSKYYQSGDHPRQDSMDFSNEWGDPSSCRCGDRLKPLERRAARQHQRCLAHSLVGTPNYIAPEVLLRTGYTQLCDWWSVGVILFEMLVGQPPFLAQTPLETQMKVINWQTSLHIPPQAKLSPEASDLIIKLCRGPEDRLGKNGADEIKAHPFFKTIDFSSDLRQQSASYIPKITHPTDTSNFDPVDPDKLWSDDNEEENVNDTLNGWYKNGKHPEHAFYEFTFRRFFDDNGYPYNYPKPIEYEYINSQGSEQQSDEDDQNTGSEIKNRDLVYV

The target in another experiment is T3, ILK (UniProt Q13418).
T3 sequence (whole entry): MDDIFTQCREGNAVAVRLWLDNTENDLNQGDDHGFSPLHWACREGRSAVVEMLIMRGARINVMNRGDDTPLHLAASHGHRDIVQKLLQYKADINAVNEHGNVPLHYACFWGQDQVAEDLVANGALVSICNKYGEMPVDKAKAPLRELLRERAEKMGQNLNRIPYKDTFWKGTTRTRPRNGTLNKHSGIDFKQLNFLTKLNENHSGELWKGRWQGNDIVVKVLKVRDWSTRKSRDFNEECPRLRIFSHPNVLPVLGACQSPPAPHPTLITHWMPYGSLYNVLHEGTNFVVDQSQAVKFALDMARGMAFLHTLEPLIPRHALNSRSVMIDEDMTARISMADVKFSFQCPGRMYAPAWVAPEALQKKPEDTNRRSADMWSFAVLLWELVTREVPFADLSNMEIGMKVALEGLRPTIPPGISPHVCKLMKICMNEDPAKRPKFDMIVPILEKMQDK

The next experiment addresses T4, UniProt Q9Y2U5.
T4 sequence (whole entry): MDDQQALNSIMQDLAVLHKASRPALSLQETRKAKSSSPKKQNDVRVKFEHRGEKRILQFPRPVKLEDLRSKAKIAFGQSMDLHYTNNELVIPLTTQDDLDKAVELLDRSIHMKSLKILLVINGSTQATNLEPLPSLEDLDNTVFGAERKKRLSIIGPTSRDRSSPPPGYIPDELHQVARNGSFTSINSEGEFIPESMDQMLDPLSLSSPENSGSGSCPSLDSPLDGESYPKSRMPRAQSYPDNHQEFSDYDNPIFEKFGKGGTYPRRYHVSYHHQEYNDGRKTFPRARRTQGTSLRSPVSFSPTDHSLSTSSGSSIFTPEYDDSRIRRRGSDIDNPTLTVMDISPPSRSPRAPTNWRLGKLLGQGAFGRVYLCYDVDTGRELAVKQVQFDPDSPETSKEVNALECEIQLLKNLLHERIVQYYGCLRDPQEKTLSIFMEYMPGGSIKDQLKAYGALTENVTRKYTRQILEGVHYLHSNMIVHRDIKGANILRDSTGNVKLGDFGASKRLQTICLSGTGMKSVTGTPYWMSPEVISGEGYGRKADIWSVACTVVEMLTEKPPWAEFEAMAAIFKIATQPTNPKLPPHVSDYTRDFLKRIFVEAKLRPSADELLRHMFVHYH

For orientation: pIC50 means −log10 of the IC50, conventionally taken in molar units.

CAMKK2, sequence (Q96RR4 whole entry, looked up): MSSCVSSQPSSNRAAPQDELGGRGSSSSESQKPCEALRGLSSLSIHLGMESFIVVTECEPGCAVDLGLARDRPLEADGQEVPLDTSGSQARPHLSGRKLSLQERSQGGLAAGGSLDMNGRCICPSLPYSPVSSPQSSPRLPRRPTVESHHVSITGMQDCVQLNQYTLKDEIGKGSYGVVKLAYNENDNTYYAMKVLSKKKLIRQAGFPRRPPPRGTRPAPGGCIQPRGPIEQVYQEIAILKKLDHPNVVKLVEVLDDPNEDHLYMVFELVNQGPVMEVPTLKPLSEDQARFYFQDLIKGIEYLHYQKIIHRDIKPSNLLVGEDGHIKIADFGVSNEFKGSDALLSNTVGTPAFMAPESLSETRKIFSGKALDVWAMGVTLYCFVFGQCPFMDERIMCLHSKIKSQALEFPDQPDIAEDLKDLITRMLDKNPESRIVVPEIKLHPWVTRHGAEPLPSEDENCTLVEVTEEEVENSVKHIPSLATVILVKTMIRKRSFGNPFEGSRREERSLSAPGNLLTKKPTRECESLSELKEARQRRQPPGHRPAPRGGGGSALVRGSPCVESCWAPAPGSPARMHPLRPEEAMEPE
UniProt Q16512, sequence (Q16512 whole entry, looked up): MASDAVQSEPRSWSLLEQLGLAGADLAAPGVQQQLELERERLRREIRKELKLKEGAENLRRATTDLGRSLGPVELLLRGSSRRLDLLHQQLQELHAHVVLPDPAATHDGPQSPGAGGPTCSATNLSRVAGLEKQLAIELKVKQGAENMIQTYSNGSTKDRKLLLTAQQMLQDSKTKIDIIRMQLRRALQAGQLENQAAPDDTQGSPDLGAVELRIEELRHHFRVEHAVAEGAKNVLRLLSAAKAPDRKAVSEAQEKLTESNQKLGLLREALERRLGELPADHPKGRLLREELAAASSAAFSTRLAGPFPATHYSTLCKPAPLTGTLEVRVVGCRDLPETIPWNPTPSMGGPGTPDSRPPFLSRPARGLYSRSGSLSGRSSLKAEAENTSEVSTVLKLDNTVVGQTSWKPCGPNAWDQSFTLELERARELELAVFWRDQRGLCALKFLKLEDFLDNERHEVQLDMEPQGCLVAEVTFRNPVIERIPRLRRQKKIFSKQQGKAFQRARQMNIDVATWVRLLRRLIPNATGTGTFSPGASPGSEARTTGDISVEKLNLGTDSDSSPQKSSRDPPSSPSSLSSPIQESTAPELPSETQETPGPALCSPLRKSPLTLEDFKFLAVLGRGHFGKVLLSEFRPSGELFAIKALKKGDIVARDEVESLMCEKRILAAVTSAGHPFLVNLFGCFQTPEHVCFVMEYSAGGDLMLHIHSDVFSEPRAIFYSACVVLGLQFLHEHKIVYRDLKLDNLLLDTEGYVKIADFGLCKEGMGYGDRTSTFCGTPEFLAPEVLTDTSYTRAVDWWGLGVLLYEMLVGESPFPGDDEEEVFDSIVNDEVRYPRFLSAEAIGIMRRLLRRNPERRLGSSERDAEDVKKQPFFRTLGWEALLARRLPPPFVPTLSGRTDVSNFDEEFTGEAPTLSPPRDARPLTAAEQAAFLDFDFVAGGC
PAK1, sequence (Q13153 whole entry): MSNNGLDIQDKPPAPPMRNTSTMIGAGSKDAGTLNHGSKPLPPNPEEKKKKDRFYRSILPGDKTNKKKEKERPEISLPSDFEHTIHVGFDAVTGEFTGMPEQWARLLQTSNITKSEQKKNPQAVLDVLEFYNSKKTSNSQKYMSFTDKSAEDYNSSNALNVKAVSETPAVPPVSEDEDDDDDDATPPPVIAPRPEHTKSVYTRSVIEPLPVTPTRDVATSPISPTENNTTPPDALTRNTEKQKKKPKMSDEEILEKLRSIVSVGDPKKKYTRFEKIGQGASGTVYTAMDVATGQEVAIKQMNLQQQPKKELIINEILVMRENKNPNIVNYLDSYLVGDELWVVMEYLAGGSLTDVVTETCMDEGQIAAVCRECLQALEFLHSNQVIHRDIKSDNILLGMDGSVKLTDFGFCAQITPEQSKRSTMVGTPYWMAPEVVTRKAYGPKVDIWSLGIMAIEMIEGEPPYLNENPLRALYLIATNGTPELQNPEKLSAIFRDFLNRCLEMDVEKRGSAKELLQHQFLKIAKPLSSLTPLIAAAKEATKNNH
PAK2, sequence (Q13177 whole entry): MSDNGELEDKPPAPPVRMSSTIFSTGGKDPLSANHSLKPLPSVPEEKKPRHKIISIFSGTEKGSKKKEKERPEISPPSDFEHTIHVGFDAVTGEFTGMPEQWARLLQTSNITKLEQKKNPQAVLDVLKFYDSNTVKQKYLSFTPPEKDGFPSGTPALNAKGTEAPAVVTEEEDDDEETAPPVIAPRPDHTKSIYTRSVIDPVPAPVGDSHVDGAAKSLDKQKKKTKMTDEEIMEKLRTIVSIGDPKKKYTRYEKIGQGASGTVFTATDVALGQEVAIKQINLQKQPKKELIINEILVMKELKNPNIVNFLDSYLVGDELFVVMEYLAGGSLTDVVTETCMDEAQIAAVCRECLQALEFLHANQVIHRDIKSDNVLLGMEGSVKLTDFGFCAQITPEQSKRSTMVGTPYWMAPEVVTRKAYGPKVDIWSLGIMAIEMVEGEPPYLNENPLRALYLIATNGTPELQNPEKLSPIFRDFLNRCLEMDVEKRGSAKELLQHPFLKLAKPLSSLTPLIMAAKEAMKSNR
MAP4K5, sequence (Q9Y4K4 whole entry, looked up): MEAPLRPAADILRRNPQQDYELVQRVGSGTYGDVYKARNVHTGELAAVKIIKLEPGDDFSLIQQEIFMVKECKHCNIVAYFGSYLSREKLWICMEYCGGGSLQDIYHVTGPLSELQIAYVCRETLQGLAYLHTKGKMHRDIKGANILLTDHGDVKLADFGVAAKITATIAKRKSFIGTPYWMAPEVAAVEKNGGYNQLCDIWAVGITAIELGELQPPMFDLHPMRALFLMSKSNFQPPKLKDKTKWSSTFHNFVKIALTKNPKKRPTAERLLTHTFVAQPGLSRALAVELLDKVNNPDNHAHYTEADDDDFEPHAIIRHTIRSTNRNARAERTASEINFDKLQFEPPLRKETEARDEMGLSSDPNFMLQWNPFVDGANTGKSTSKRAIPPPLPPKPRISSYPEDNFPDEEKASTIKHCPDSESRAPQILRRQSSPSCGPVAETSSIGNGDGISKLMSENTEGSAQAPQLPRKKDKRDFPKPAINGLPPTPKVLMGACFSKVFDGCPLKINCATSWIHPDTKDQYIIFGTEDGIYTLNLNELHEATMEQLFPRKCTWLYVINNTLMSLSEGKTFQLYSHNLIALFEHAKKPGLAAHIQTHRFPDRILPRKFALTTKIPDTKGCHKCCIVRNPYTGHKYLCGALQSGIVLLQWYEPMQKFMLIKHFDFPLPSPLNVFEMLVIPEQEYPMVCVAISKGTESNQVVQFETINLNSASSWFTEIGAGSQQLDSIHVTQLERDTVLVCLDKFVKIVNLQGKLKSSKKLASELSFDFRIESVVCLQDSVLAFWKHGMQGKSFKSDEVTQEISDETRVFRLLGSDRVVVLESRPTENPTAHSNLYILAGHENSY
UniProt Q8NI60, sequence (Q8NI60 whole entry, looked up): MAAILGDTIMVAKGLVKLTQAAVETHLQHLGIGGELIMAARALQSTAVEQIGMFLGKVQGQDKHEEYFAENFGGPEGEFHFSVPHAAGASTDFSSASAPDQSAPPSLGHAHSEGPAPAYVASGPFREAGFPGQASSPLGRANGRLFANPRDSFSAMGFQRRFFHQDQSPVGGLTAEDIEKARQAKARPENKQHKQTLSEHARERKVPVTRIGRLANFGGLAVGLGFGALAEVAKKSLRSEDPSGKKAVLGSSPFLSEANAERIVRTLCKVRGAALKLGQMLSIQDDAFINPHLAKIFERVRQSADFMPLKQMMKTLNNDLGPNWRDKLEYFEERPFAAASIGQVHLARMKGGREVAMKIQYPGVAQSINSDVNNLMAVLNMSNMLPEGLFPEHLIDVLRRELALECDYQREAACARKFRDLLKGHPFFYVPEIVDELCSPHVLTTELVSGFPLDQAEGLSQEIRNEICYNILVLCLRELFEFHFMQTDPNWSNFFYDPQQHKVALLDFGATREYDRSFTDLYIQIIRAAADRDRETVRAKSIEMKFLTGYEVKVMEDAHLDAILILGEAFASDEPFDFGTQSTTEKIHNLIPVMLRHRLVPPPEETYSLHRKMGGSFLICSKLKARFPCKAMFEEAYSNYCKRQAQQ
UniProt Q8NEB9, sequence (Q8NEB9 whole entry): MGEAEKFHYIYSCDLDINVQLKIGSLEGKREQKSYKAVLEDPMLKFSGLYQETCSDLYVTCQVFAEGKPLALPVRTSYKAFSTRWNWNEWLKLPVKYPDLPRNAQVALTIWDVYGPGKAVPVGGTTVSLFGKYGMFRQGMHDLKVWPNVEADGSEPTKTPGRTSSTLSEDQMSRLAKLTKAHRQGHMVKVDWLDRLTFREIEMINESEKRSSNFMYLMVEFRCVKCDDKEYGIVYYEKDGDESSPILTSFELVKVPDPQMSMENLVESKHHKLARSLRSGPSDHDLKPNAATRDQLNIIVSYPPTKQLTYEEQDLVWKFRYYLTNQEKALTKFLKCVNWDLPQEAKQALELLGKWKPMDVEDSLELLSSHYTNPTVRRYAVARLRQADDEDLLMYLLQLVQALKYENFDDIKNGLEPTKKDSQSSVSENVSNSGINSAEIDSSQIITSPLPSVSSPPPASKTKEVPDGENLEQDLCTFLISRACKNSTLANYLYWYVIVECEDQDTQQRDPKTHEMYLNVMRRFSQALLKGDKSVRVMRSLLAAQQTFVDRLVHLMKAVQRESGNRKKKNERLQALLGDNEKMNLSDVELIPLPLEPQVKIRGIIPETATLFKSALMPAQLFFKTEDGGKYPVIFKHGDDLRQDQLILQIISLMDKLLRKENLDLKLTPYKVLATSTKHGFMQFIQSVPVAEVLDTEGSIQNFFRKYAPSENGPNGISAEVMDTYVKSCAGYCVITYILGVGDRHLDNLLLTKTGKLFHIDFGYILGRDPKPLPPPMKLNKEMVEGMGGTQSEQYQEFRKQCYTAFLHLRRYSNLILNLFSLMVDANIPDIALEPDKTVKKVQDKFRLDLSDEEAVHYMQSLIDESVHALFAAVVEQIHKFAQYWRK

As for `CCc1cnn2c(NCc3ccc[n+]([O-])c3)cc(N3CCCC[C@H]3CCO)nc12` [dinaciclib], the pIC50 on PHKG2 is under 4.52; on PAK1 it was under 4.52; on CAMKK2, 5.245 ± 0.035; on UniProt Q8NEB9, under 4.52; on LATS1, under 4.52; on ILK it was under 4.52. In addition, the pIC50 at UniProt Q9Y2U5, on PAK2, at UniProt Q8NI60, at UniProt Q16512 and at MAP4K5 was under 4.52 throughout.
